Literature values, collected in patent publication US20060099251A1, “Formulations of finasteride” (priority 2002, published 2006).

CC(C)(C)NC(=O)[C@H]1CCC2[C@@H]3CCC4NC(=O)C=C[C@]4(C)C3CC[C@@]21C (stereo partly drawn) [Finasteride, 17β-(N-tert-butylcarbamoyl)-4-aza-5α-androst-1-en-3-one]
solubility in water: practically insoluble
